Each block holds one compound with its values, some of them ahead of it.
Tests used:
aggregates of Aβ(1-42) = biological target: T1, aggregates of Aβ(1-42) (Homo sapiens, UniProt P05067); test: Inhibition of [125I]3 binding to aggregated Aβ(1-42) peptide in solution; conditions: 25° C.; mean±SEM of three independent experiments; read-out: Inhibition constants (Ki) on ligand binding to aggregates of Aβ(1-42) vs [^125I]3
T1 construct: The solid forms of peptides Aβ(1-40) and Aβ(1-42) were purchased; purchased Bachem (King of Prussia, Pa.)
Description: (§1) The solid forms of peptides Aβ(1-40) and Aβ(1-42) were purchased from Bachem (King of Prussia, Pa.). Aggregation of peptides were carried out by gently dissolving the peptide [0.5 mg/mL for Aβ(1-40) and 0.25 mg/mL for Aβ (1-42) in a buffer solution (pH 7.4) containing 10 mM sodium phosphate and 1 mM EDTA. The solutions were incubated at 37° C. for 36-42 h with gentle and constant shaking. Binding studies were carried out in 12×75 mm borosilicate glass tubes according to the procedure described with some modifications (Klunk, W. E., et al., Biol. Psychiatry 35:627 (1994)). Aggregated fibrils (10-50 nM in the final assay mixture) were added to the mixture containing […] of radioligands (0.01-0.5 nM) in 40% EtOH and 10% EtOH in a final volume of 1 mL for saturation studies. […] For inhibition studies, 1 mL of the reaction mixture contained […] of inhibitors (10-5-10-10 M in 10% EtOH) and 0.05 nM radiotracer in 40% EtOH. The mixture was incubated at room temperature for 3 h and the bound and the free radioactivity were separated by vacuum filtration through Whatman GF/B filters using a Brandel M-24R cell harvester followed by 2×3 mL washes of 10% ethanol at room temperature. Filters containing the bound I-125 ligand were counted in a gamma counter (Packard 5000) with 70% counting efficiency. The results of saturation and inhibition experiments were subjected to nonlinear regression analysis using software EBDA52 by which Kd and Ki values were calculated.
(§2) Values are the mean±SEM of three independent experiments, each in duplicates.

aggregates of Aβ(1-40) = biological target: T2, aggregates of Aβ(1-40) (Homo sapiens, UniProt P05067); test: Inhibition of [125I]3 binding to aggregated Aβ(1-40) peptide in solution; conditions: 25° C.; mean±SEM of three independent experiments; read-out: Inhibition constants (Ki) on ligand binding to aggregates of Aβ(1-40) vs [^125I]3
T2 construct: The solid forms of peptides Aβ(1-40) and Aβ(1-42) were purchased; purchased Bachem (King of Prussia, Pa.)
Description: as §1, §2

[1] = In vivo biodistribution in normal mice after iv injection; set-up: species or system ICR mice; conditions: for Blood / Brain / Heart / Liver: normal mice; for Blood / Brain / Heart / Liver / time at which brain uptake peaked / maximum brain uptake: iv; for Initial brain uptake / time at which brain uptake peaked / maximum brain uptake: mice; for Initial brain uptake: after an iv injection; for maximum brain uptake: peak at 60 min
Description: While under ether anesthesia, 0.15 mL of a saline solution containing labeled agents ([…]) was injected directly into the tail vein of ICR mice (2-3 month-old, average weight 20-30 g). The mice were sacrificed by cardiac excision at various time points post injection. The organs of interest were removed and weighed, and the radioactivity was counted with an automatic gamma counter (Packard 5000). The percentage dose per organ was calculated by a comparison of the tissue counts to suitably diluted aliquots of the injected material. Total activities of blood and muscle were calculated under the assumption that they were 7% and 40% of the total body weight, respectively.

fibrillar AP aggregates = fibrillar AP aggregates (Homo sapiens, UniProt P05067); conditions: Mathis et al. 1997; read-out: inhibition constants (K′) for binding to fibrillar AP aggregates; cited from earlier work
[2] = Partition coefficient determination (1-octanol/buffer); assay type: physicochemical; conditions: 1-octanol / 0.1 M phosphate buffer pH 7.4, [125I]tracer
Description: The test tube was vortexed for 3 min at room temperature, followed by centrifugation for 5 min. Two weighed samples (0.5 g each) from the 1-octanol and buffer layers were counted in a well counter. The partition coefficient was determined by calculating the ratio of cpm/g of 1-octanol to that of buffer. Samples from the 1-octanol layer were re-partitioned until consistent partitions of coefficient values were obtained. The measurement was done in triplicate and repeated three times.

T2 sequence (P05067 672-711 limits assumed): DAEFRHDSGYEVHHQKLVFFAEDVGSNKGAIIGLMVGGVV
T1 sequence (P05067 672-713 limits assumed): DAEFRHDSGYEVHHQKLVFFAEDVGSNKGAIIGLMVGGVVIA
Sequence of fibrillar AP aggregates (P05067 672-711): as the sequence (P05067 672-711 limits assumed) above

- Ki (aggregates of Aβ(1-42)): 0.8 ± 0.3 nM
- Ki (aggregates of Aβ(1-40)): 1.9 ± 0.3 nM
Structure (SMILES): CN(C)c1ccc(-c2nc3ccc(Br)cc3s2)cc1 [Compound 1, 2-(4′-Dimethylaminophenyl)-6-bromobenzothiazole]

Structure (SMILES): CN(C)c1ccc(-c2nc3ccc([125I])cc3s2)cc1 [[^125I] Compound 3]
- Blood ([1]; 2 min): 15.74 ± 6.06 % dose/organ
- Brain ([1]; 2 min): 0.67 ± 0.11 % dose/organ
- Heart ([1]; 2 min): 1.79 ± 0.39 % dose/organ
- Liver ([1]; 2 min): 31.62 ± 2.38 % dose/organ
- Blood ([1]; 30 min): 3.26 ± 0.05 % dose/organ
- Brain ([1]; 30 min): 0.97 ± 0.29 % dose/organ
- Heart ([1]; 30 min): 0.20 ± 0.01 % dose/organ
- Liver ([1]; 30 min): 10.93 ± 2.34 % dose/organ
- Blood ([1]; 60 min (1 hr)): 3.79 ± 0.19 % dose/organ
- Brain ([1]; 60 min (1 hr)): 1.57 ± 0.24 % dose/organ
- Heart ([1]; 60 min (1 hr)): 0.17 ± 0.02 % dose/organ
- Liver ([1]; 60 min (1 hr)): 9.21 ± 3.05 % dose/organ
- Blood ([1]; 6 h): 1.44 ± 0.05 % dose/organ
- Brain ([1]; 6 h): 0.65 ± 0.11 % dose/organ
- Heart ([1]; 6 h): 0.05 ± 0.01 % dose/organ
- Liver ([1]; 6 h): 1.52 ± 0.30 % dose/organ
- Blood ([1]; 24 h): 0.29 ± 0.09 % dose/organ
- Brain ([1]; 24 h): 0.04 ± 0.01 % dose/organ
- Heart ([1]; 24 h): 0.01 ± 0.00 % dose/organ
- Liver ([1]; 24 h): 0.30 ± 0.07 % dose/organ

Structure (SMILES): O=C(O)c1cc(/N=N/c2ccc(-c3ccc(/N=N/c4ccc(O)c(C(=O)O)c4)cc3)cc2)ccc1O [Chrysamine G, reference compound]
- Ki (aggregates of Aβ(1-42)): > 2000 nM
- Ki (fibrillar AP aggregates): 370 nM
- Ki (aggregates of Aβ(1-40)): > 1000 nM

- Blood ([1]; 2 min): 8.02 ± 0.82 % dose/organ
- Brain ([1]; 2 min): 1.50 ± 0.10 % dose/organ
- Heart ([1]; 2 min): 2.19 ± 0.43 % dose/organ
- Liver ([1]; 2 min): 28.84 ± 3.77 % dose/organ
- Blood ([1]; 30 min): 5.15 ± 0.23 % dose/organ
- Brain ([1]; 30 min): 1.59 ± 0.19 % dose/organ
- Heart ([1]; 30 min): 0.69 ± 0.02 % dose/organ
- Liver ([1]; 30 min): 21.22 ± 5.86 % dose/organ
- Blood ([1]; 60 min (1 hr)): 4.16 ± 0.28 % dose/organ
- Brain ([1]; 60 min (1 hr)): 1.89 ± 0.43 % dose/organ
- Heart ([1]; 60 min (1 hr)): 0.66 ± 0.06 % dose/organ
- Liver ([1]; 60 min (1 hr)): 17.20 ± 2.49 % dose/organ
- Blood ([1]; 6 h): 1.49 ± 0.26 % dose/organ
- Brain ([1]; 6 h): 1.08 ± 0.08 % dose/organ
- Heart ([1]; 6 h): 0.22 ± 0.06 % dose/organ
- Liver ([1]; 6 h): 5.79 ± 1.24 % dose/organ
- Blood ([1]; 24 h): 0.41 ± 0.09 % dose/organ
- Brain ([1]; 24 h): 0.91 ± 0.08 % dose/organ
- Heart ([1]; 24 h): 0.08 ± 0.01 % dose/organ
- Liver ([1]; 24 h): 3.05 ± 0.87 % dose/organ
Structure (SMILES): CN1CCN(c2ccc(-c3nc4ccc([125I])cc4s3)cc2)CC1 [[^125I] Compound 6a]

- Ki (aggregates of Aβ(1-42)): 6.4 ± 0.7 nM
- Partition Coefficient (PC) [2]: 312
- Ki (aggregates of Aβ(1-40)): 5.4 ± 0.7 nM
- Initial brain uptake [1]: 1.50 % dose/organ
- time at which brain uptake peaked [1]: 60 min
- maximum brain uptake [1]: 1.89 % dose/organ
Structure (SMILES): CN1CCN(c2ccc(-c3nc4ccc(I)cc4s3)cc2)CC1 [Compound 6a, 2-[4′-(4″-Methylpiperazin-1-yl)-phenyl]-6-iodobenzothiazole]

- Ki (aggregates of Aβ(1-42)): 2.2 ± 0.4 nM
- Partition Coefficient (PC) [2]: 70
- Ki (aggregates of Aβ(1-40)): 0.9 ± 0.2 nM
- Initial brain uptake [1]: 0.67 % dose/organ
- time at which brain uptake peaked [1]: 60 min
- maximum brain uptake [1]: 1.57 % dose/organ
Structure (SMILES): CN(C)c1ccc(-c2nc3ccc(I)cc3s2)cc1 [Compound 3, 2-(4′-Dimethylaminophenyl)-6-iodobenzothiazole]

- Ki (aggregates of Aβ(1-42)): 5 ± 0.8 nM
- Ki (aggregates of Aβ(1-40)): 1.6 ± 0.5 nM
Structure (SMILES): CN1CCN(c2ccc(-c3nc4ccc(Br)cc4s3)cc2)CC1 [Compound 4, 2-[4′-(4″-Methylpiperazin-1-yl)-phenyl]-6-bromobenzothiazole]
